{"source": "patent US6632797B2", "about": "“Method of treating angiogenesis” (priority 1996, dated 2003)", "key": {"[1]": {"system": "Fibroblast growth factor (FGF)", "test": "Interaction between FGF and radioactive IP3, co-elution on Sephadex G-25 / Heparin-Sepharose columns", "format": "binding", "settings": "co-elution from Sephadex G-25, 50 mM Hepes pH 7.4", "experimental": "The mixture was incubated for 1 hour at 4° C.\nThis type of column fractionate substances according to molecular weight. Substances with molecular weight exceeding 1500 will not penetrate the microspheres of the column and will accordingly elute quite soon after being loaded to the column, while smaller molecules will appear later as they partly or totally penetrate the microspheres depending on the molecular weight.\nThe incubate was loaded on the column and was uluted with 50 mM Hepes in fractions of 0.4 ml each.\nTo further determine the interaction the fractions with radioactivity and UV absorbance were loaded on a Heparin-Sepharose CL-6B column (Pharmacia Biotech, Sweden) (volume 25 ml, height 20 cm). […] Elution was performed with 50 mM Hepes, pH 7.4 and each fraction of 1 ml was collected for determination of radioactivity and UV absorbance. A peak with radioactivity but without UV absorption was loaded on a similar Sephadex G-25 column as described above and was eluted with the same type of buffer. Maximum radioactivity was obtained in fraction number 13 i.e. in this case the substance with radioactivity was more retained on the column."}, "[2]": {"system": "heterotopic bone formation", "test": "Rabbit heterotopic bone (HB) development model", "format": "in vivo", "set-up": "key: ++++: very marked amount of HB; +++: marked amount of HB; ++: between slight and marked amount of HB; +: slight amount of HB; 0: none amount of HB", "settings": "1 mg/kg/hour s.c. osmotic minipump, day 42", "experimental": "Heterotopic bone formation is caused by a local growth and formation of bone. One essential component in this process is the activation of growth factors.\nThe right hind limb of adult rabbits (weight about 4.0 kg) was immobilized with the knee in extension by means of a plastic splint and an elastic bandage, so that the Vastus intermedius profundus (VIP) muscle was in a shortened position and the hip joint could be moved freely.\nAccording to the standard model the rabbits were treated by removing the splint daily for 2-3 minutes for forcible and rapid manipulation of the knee.\nIP3 was administered via subcutaneously operated osmotic minipumps to three rabbits. The dose level was 1 mg/kg/hour, and the time of application period was 14-21 days. The control group, another three rabbits received NaCl-solution by osmotic minipumps.\nAnteposterior and lateral radiographs were made of the hind limbs of all rabbits weekly throughout the duration of the experiment which lasted 42 days.\nAt the end of the experiment the rabbits were killed with an overdose of Mebunat and the left and right femoral bones of each rabbit were dissected and boiled for macroscopic examination."}, "[3]": {"system": "Vascular permeability factor (VPF)", "test": "VPF-induced vascular permeability, Evans Blue distribution in guinea pigs", "format": "in vivo, guinea pig", "settings": "5 mg/kg intravenous; after 60 minutes; control 62 mm^2", "experimental": "Vascular permeability factor (VPF) promotes extravasation and oedema formation. Evans Blue was injected intravenously to 15 guinea pigs. This dye binds to plasma proteins and thereby provides a marker for vascular permeability to macromolecules.\n50 mg of VPF was injected to each animal and the distribution of Evans Blue was measured."}, "eye opening": {"system": "eye opening", "test": "Eye opening of new-born mice", "format": "in vivo", "settings": "192 μg/g/day, daily injections day 0 to day 7; controls 13.6 and 13.5 days", "from_the_text": "Growth factors are involved in processes occuring in new-born mammals. The biological process of eye opening is one example where specific growth factors affect the timing and completeness of the event.\nThree groups of mice, 40 animals in each group were used. […] The third group served as a control without any treatment."}, "scarr formation on skin": {"system": "scarr formation on skin", "test": "Scar formation on scratches of the epidermis of a human hand, topical application", "format": "in vivo", "settings": "topical solution, observation over 10 days", "experimental": "To two of the scratches a solution comprising IP3 was applied topically while two of the scratches served as controls. Occular investigation was performed every day over a period of 10 days."}, "[4]": {"test": "Binding constants to the polyamine spermine", "format": "physicochemical", "settings": "1:1:5 complex; 0.1 M N-tetramethylbromide at 25° C.", "experimental": "The interaction between a polyamine, spermine and different triphosphorylated compounds were investigated in order to determin the binding constants. Spermine is a basic polyamine comprising domains of similar basicity to basic domains in growth factors. Spermine and the different phosphorylated compounds forms different complexes and the 1:1:5 complex was used as the complex for determination of binding constants.\nThe following binding constants, log Ks was determined in 0.1 M N-tetramethylbromide at 25° C.: […]"}, "[5]": {"system": "phosphatidyl inositol 3′ kinase (PI 3′-kinase)", "test": "Interstitial fluid pressure (PIF) in rat hind paw, wortmannin-induced decrease", "format": "in vivo, Wistar Möller rats", "settings": "5 μg in 0.1 ml intravenous before wortmannin", "from_the_text": "The enzyme phosphatidyl inositol 3′ kinase (PI 3′-kinase) is implicated in a number of growth factor induced responses such as mitogenesis, chemotaxis, membrane ruffling and the balance between osteoclasts and osteoblasts. Furthermore it is known that inactivation of PI 3′ kinase leads to increased oedema formation expressed as a decrease of interstitial fluid pressure (PIF) in animal models.\nAn inhibitor of PI 3′ kinase such as wortmannin renders a decrease of PIF as a consequence of inactivation of PI 3′ kinase.\nThe measurements were performed on female Wistar Möller rats (200-250 g), anesthetized with pentobarbital (50 mg/kg i.p.).\nPIF was measured on the dorsal side of the hind paw with sharpened glass capillarier (tip diameter 2-7 μm) filled with 0.5 M NaCl coloured with Evans Blue and connected to a serve-controlled counter pressure system. The punctures were performed through intact skin using a stereomicroscope. The pipette-tip was located 0.3-0.5 mm below the skin. Pressure measurements were made 2.5-3.0 mm from the center of injection. The normal transcapillary pressure gradient is about 0.5 mm Hg.\nThree sets of experiments were performed with six animals in each set.\nIn the first set of experiment the vehicle for wortmannin, DMSO diluted in saline, 5 μl, was injected subdermally using a chromatography syringe. […]"}, "Wish tumour cells": {"system": "Wish tumour cells", "test": "Wish tumour cell-induced bone tumours on the calvaria of nude mice", "format": "in vivo", "set-up": "key: +: small and non-severe tumours; ++++: large and severe tumours", "settings": "120 mg/kg/day osmotic minipump for 14 days; individual animals", "experimental": "The injection of a specific cell-line Wish tumour cells, induces proliferation of osteoblasts on the calvaria of nude mice leading to bone tumours.\nWish cells (American Type Culture Collection^R, ATCC (R) F-12784 25 CCL WITH×01166) were used for inocculation. Cells were grown on MEM supplemented with 15% FCS, 2% glutamine and streptomycin-penicillin/garamycin. Cells were grown as a monolayer and trypsinised and split in the ratio 1:3 to 1:4. All together 360 million cells were harvested and suspended in 7 ml for a final concentration of approximately 10 million cells per 0.2 ml.\nThe osmotic pumps with IP3 and saline respectively were implanted on the same day as the inocculation of Wish-cells were performed.\nA 27 gauge needle on a 1 ml syringe was used for the injections of Wish-cells. The injection was done under the skin of the calvaria scratching the periosteum.\nAt day 13 all animals were given an intraperiotoneal injection of demeclocycline (Sigma Chemicals Co. St Louis). All animals were investigated regarding the occurrence of and size of tumours. The size of tumours were measured according to a scale from\n+ which represents small and non-severe tumours to\n++++ which represents large and severe tumours."}}, "note": "Several values for one entry are separate records, joined by “and”; a condition that tells them apart may be missing. Equal entries are not always repeated."}
{"smiles": "O=P(O)(O)OC1C(O)C(O)C(O)C(OP(=O)(O)O)C1OP(=O)(O)O", "note": "[IP3, D-myo-inositol-1,2,6-trisphosphate]", "values": [{"measurement": "interaction between FGF and IP3", "setting": "[1]", "result": "strong interaction"}, {"measurement": "Amount of HB", "setting": "[2]; application of IP3 14 days, individual rabbits, 1 mg/kg", "result": "+ and 0"}, {"measurement": "Amount of HB", "setting": "[2]; application of IP3 21 days, individual rabbit", "result": 0}, {"measurement": "average area covered with Evans Blue", "setting": "[3]", "result": 15, "unit": "mm^2"}, {"measurement": "eye opening, medium value", "setting": "eye opening", "result": 15.3, "unit": "days"}, {"measurement": "scarr formation compared to the control", "setting": "scarr formation on skin", "result": "formed scarr in a delayed manner"}, {"measurement": "log Ks", "setting": "[4]", "result": 5.16}, {"measurement": "effect of pretreatment on wortmannin-induced decrease in PIF", "setting": "[5]", "result": "abolished decrease in PIF"}, {"measurement": "Severeness of tumours", "setting": "Wish tumour cells", "result": "++++"}]}
